Data from patent US10898469B2, “Imidazolylamide derivative” (Sumitomo Dainippon Pharma Co., Ltd., priority 2016, dated 2021).
Like-named read-outs stand apart in the source and are kept apart here.

What was measured:
Assay type in all cases: cell-based, human
[1] = tested on: FaDu cells; experiment: Inhibition test for sphere-forming ability of cancer cells (Test Example 1), FaDu; conditions: for IC50: concentration for 50% inhibition of cell proliferation, read-out: IC50 (μmol/L) FaDu (Sphere IC50 value); for viability at 1 µM: read-out: (100%-inhibition rate of cell proliferation) at 1 μmol/L, 1 μmol/L, value with %; for (100%-inhibition rate of cell proliferation) at 1 μmol/L, FaDu: value with %
Outline: (§1)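 Sphere IC50 (μmol/L) derived from CellTiter-Glo luminescence after 4 days of compound treatment (final DMSO 0.1%). Non-adherent, serum-free culture of 350-800 cells/well in DMEM/F12 supplemented with 2% B27, EGF, bFGF and insulin assessed self-renewal.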

[2] = tested on: HT-29 cells; experiment: Inhibition test for sphere-forming ability of cancer cells (Test Example 1), HT-29; conditions: for IC50: concentration for 50% inhibition of cell proliferation, read-out: IC50 (μmol/L) HT-29 (Sphere IC50 value); for viability at 1 µM: read-out: (100%-inhibition rate of cell proliferation) at 1 μmol/L, 1 μmol/L, value with %; for (100%-inhibition rate of cell proliferation) at 1 μmol/L, HT-29: value with %
Outline: as §1

[3] = tested on: HCT-116 cells; experiment: Inhibition test for sphere-forming ability of cancer cells (Test Example 1), HCT-116; conditions: for IC50 / viability at 1 µM / (100%-inhibition rate of cell proliferation) at 1 μmol/L, HCT-116: HCT-116 cells; for IC50: concentration for 50% inhibition of cell proliferation, read-out: IC50 (μmol/L) HCT-116 (Sphere IC50 value); for inhibitory effect on the sphere-forming ability of cancer cells: Test Example 1, summary in words, cell line not given (HCT-116, HT-29, FaDu tested); for viability at 1 µM: read-out: (100%-inhibition rate of cell proliferation) at 1 μmol/L; for viability at 1 µM / (100%-inhibition rate of cell proliferation) at 1 μmol/L, HCT-116: 1 μmol/L, value with %
Outline: as §1

| SMILES | IC50 [1] [µmol/L] | IC50 [2] [µmol/L] | IC50 [3] [µmol/L] | IC50 ([1]; Homo sapiens) [µmol/L] | IC50 ([2]; Homo sapiens) [µmol/L] | IC50 ([3]; Homo sapiens) [µmol/L] | further results |
| --- | --- | --- | --- | --- | --- | --- | --- |
| COc1cc(/C=C/C(=O)Nc2cn(Cc3cccc(Cl)c3)cn2)cc(OC)c1OC [Example 82] | 1.76 | 0.99 | 6.51 | – | – | – | – |
| O=C(/C=C/c1ccc2[nH]ccc2c1)Nc1cn(Cc2cccc(Cl)c2)cn1 [Example 47, (E)-N-(1-(3-Chlorobenzyl)-1H-imidazol-4-yl)-3-(1H-indol-5-yl)acrylamide] | – | – | – | 0.76 | 0.7 | 0.89 | – |
| O=C(/C=C/c1ccc(C(F)(F)F)cc1)Nc1cn(Cc2cccc(Cl)c2)cn1 [Example 48, (E)-N-(1-(3-Chlorobenzyl)-1H-imidazol-4-yl)-3-(4-(trifluoromethyl)phenyl)acrylamide] | – | – | – | 0.09 | 0.08 | 0.76 | – |
| O=C(/C=C/c1ccc(O)c(F)c1)Nc1cn(Cc2cccc(Cl)c2)cn1 [Example 81] | 0.76 | 6.12 | 3.82 | – | – | – | – |
| COc1ccc(C(=O)Nc2cn(Cc3cccc(OC(F)(F)F)c3)cn2)cn1 [Example 212] | 0.84 | 0.99 | 0.78 | – | – | – | – |
| CS(=O)(=O)c1ccc(/C=C/C(=O)Nc2cn(Cc3cccc(Cl)c3)cn2)cc1 [Example 13] | – | – | – | 2.84 | 0.74 | 8.72 | – |
| O=C(Nc1cn(Cc2cccc(Cl)c2)cn1)c1ccc(OCC(F)(F)F)nc1 [Example 219] | 9.4 | 8.34 | 0.92 | – | – | – | – |
| O=C(/C=C/c1cccc(O)c1)Nc1cn(Cc2cccc(Cl)c2)cn1 [Example 65] | 0.06 | 2.66 | 0.95 | – | – | – | inhibitory effect on the sphere-forming ability of cancer cells [3]: particularly potent inhibitory effect |
| COc1cc(/C=C/C(=O)Nc2cn(Cc3cccc(Cl)c3)cn2)ccc1O [Example 24] | – | – | – | 5.97 | > 10 | 7.42 | – |
| COc1cc(/C=C/C(=O)Nc2cn(Cc3cccc(Cl)c3)cn2)cc(OC)c1O [Example 67] | 0.79 | 8.37 | 7.34 | – | – | – | – |
| CCCCNC(=O)c1ccc(/C=C/C(=O)Nc2cn(Cc3cccc(Cl)c3)cn2)cn1 [Example 27] | – | – | – | 5.84 | 3.38 | > 10 | – |
| CC(C)Oc1ccc(C(=O)Nc2cn(Cc3cccc(Cl)c3)cn2)cc1 [Example 140] | – | – | – | – | – | – | viability at 1 µM ([1]; Homo sapiens): 81.8%; viability at 1 µM ([2]; Homo sapiens): 83%; viability at 1 µM ([3]; Homo sapiens): 31.4% |
| COc1ccc(C(=O)Nc2cn(Cc3ccc(C(F)(F)F)o3)cn2)cc1OC [Example 171] | – | – | – | – | – | – | (100%-inhibition rate of cell proliferation) at 1 μmol/L, FaDu [1]: 29.6%; (100%-inhibition rate of cell proliferation) at 1 μmol/L, HT-29 [2]: 33.8%; (100%-inhibition rate of cell proliferation) at 1 μmol/L, HCT-116 [3]: 36.4% |
| O=C(Nc1cn(Cc2cccc(C(F)(F)F)c2)cn1)c1ccc(OCC(F)(F)F)nc1 [Example 214] | 3.52 | 0.9 | 5.31 | – | – | – | – |
| O=C(/C=C/c1ccc(C(=O)N2CCCC2)nc1)Nc1cn(Cc2cccc(Cl)c2)cn1 [Example 28] | – | – | – | 0.8 | 0.91 | 7.89 | – |
| O=C(Nc1cn(Cc2cccc(C(F)(F)F)c2)cn1)c1ccc(CC(F)F)nc1 [Example 187] | 8.64 | 3.74 | 7.31 | – | – | – | – |
| COc1ccc(C(=O)Nc2cn(Cc3ccc4c(c3)C(C)(C)CCC4(C)C)cn2)cc1OC [Example 172] | – | – | – | – | – | – | (100%-inhibition rate of cell proliferation) at 1 μmol/L, FaDu [1]: 42.3%; (100%-inhibition rate of cell proliferation) at 1 μmol/L, HT-29 [2]: 16.6%; (100%-inhibition rate of cell proliferation) at 1 μmol/L, HCT-116 [3]: 34.3% |
| O=C(/C=C/c1ccco1)Nc1cn(Cc2cccc(Cl)c2)cn1 [Example 87] | 5.14 | 5.53 | 2.37 | – | – | – | – |
| COc1ccc(C(=O)Nc2cn(Cc3cccc(C)c3)cn2)cc1OC [Example 291] | – | – | – | – | – | – | (100%-inhibition rate of cell proliferation) at 1 μmol/L, FaDu [1]: 37.8%; (100%-inhibition rate of cell proliferation) at 1 μmol/L, HT-29 [2]: 37.1%; (100%-inhibition rate of cell proliferation) at 1 μmol/L, HCT-116 [3]: 70.8% |

| SMILES | IC50 [1] [µmol/L] | IC50 [2] [µmol/L] | IC50 [3] [µmol/L] | IC50 ([1]; Homo sapiens) [µmol/L] | IC50 ([2]; Homo sapiens) [µmol/L] | IC50 ([3]; Homo sapiens) [µmol/L] | further results |
| --- | --- | --- | --- | --- | --- | --- | --- |
| COc1ccc(C(=O)Nc2cn(Cc3cc(Cl)nc(Cl)c3)cn2)cc1OC [Example 170] | – | – | – | – | – | – | (100%-inhibition rate of cell proliferation) at 1 μmol/L, FaDu [1]: 27.1%; (100%-inhibition rate of cell proliferation) at 1 μmol/L, HT-29 [2]: 24.9%; (100%-inhibition rate of cell proliferation) at 1 μmol/L, HCT-116 [3]: 33.8% |
| O=C(/C=C/c1cccc(Cl)c1)Nc1cn(Cc2cccc(Cl)c2)cn1 [Example 58] | 6.52 | 4.89 | 6.99 | – | – | – | – |
| O=C(/C=C/c1ccc(O)c(O)c1)Nc1cn(Cc2cccc(Cl)c2)cn1 [Example 21, (E)-N-(1-(3-Chlorobenzyl)-1H-imidazol-4-yl)-3-(3,4-dihydroxyphenyl)acrylamide] | – | – | – | 0.66 | 6.65 | 7.05 | – |
| O=C(Nc1cn(Cc2cccc(C(F)(F)F)c2)cn1)c1ccc2cccnc2c1 [Example 195] | > 10 | 5.55 | > 10 | – | – | – | – |
| O=C(/C=C/c1ccsc1)Nc1cn(Cc2cccc(Cl)c2)cn1 [Example 119] | – | – | – | 0.56 | 0.16 | 0.67 | – |
| Cc1cccc(C(=O)Nc2cn(Cc3cccc(Cl)c3)cn2)n1 [Example 279] | – | – | – | – | – | – | viability at 1 µM ([1]; Homo sapiens): 47.2%; viability at 1 µM ([2]; Homo sapiens): 42.3%; viability at 1 µM ([3]; Homo sapiens): 87.4% |
| COc1ccc(C(=O)Nc2cn(Cc3cccc(C(F)(F)F)c3)cn2)cn1 [Example 209] | 6.45 | 4.95 | 4.24 | – | – | – | – |
| O=C(/C=C/c1ccc2ccccc2c1)Nc1cn(Cc2cccc(Cl)c2)cn1 [Example 95] | 0.99 | 3.23 | > 10 | – | – | – | – |
| CCOc1ccc(/C=C/C(=O)Nc2cn(Cc3cccc(Cl)c3)cn2)cn1 [Example 1, (E)-N-(1-(3-Chlorobenzyl)-1H-imidazol-4-yl)-3-(6-ethoxypyridin-3-yl)acrylamide] | – | – | – | 0.05 | 0.02 | 0.32 | – |
| COc1cc(/C=C/C(=O)Nc2cn(Cc3cccc(Cl)c3)cn2)c([N+](=O)[O-])cc1OC [Example 75] | 7.19 | 6.45 | 7.56 | – | – | – | – |
| Cc1cccc(/C=C/C(=O)Nc2cn(Cc3cccc(C(F)(F)F)c3)cn2)c1 [Example 105] | – | – | – | 0.85 | 0.94 | 5.05 | – |
| CCOc1cccc(/C=C/C(=O)Nc2cn(Cc3cccc(Cl)c3)cn2)c1 [Example 64] | 0.59 | 0.69 | 9.79 | – | – | – | – |
| O=C(/C=C/c1c[nH]cn1)Nc1cn(Cc2cccc(Cl)c2)cn1 [Example 90] | 6.32 | 7.87 | 8.17 | – | – | – | – |
| O=C(/C=C/c1ccc(F)cc1Br)Nc1cn(Cc2cccc(Cl)c2)cn1 [Example 78] | 8.9 | 6.34 | 7.31 | – | – | – | – |
| Cc1ccc(F)c(Cn2cnc(NC(=O)/C=C/c3cccnc3)c2)c1F [Example 113] | – | – | – | > 10 | 0.53 | 0.54 | – |
| Cc1ccncc1/C=C/C(=O)Nc1cn(Cc2cccc(Cl)c2)cn1 [Example 91] | 6.15 | 4.5 | 7.51 | – | – | – | – |
| CCCOc1ccc(C(=O)Nc2cn(Cc3cccc(Cl)c3)cn2)cn1 [Example 136] | – | – | – | – | – | – | (100%-inhibition rate of cell proliferation) at 1 μmol/L, FaDu [1]: 75.2%; (100%-inhibition rate of cell proliferation) at 1 μmol/L, HT-29 [2]: 71.8%; (100%-inhibition rate of cell proliferation) at 1 μmol/L, HCT-116 [3]: 44.2% |
| COc1ccc(/C=C/C(=O)Nc2cn(Cc3cccc(Cl)c3)cn2)cc1 [Example 118, (E)-N-(1-(3-Chlorobenzyl)-1H-imidazol-4-yl)-3-(4-methoxyphenyl)acrylamide] | – | – | – | 0.07 | < 0.01 | 0.1 | inhibitory effect on the sphere-forming ability of cancer cells [3]: particularly potent inhibitory effect |
